Test results taken from article PMC5041162, “Chemistry and Molecular Dynamics Simulations of Heme b-HemQ and Coproheme-HemQ” (Biochemistry, 2016).

Columns and labels:
SaHemQ = assay type: binding, Staphylococcus aureus
Experimental: Differential scanning calorimetry (DSC) measurements were performed using a VP-capillary DSC microcalorimeter from Microcal with a cell volume of 137 μL. The measurements were controlled by the VP-viewer program, and the instrument was equipped with an autosampler for 96-well plates. Samples were analyzed using a programmed heating scan rate of 60 °C h^–1 over a temperature range from 20 to 100 °C, and the cell pressure was approximately 60 psi (4.136 bar). DSC thermograms were corrected for buffer baseline and protein concentration. Apo-, heme b-, or coproheme-LmHemQ and SaHemQ (5 μM each) in 50 mM phosphate buffer (pH 7.0) were used for each measurement. For data analysis and conversion, the Microcal origin software was used. Heat capacity (Cp) was expressed in kilocalories per mole per kelvin. Data points were fitted to non-two-state equilibrium unfolding models by the Lavenberg–Marquardt (LM) nonlinear least-squares method.

[1] = molecular target: T1, apo-SaHemQ (HemQ from Staphylococcus aureus) (Staphylococcus aureus, UniProt A6QEP0); assay type: binding; conditions: pH 7
T1 construct: poly-His (C); made in house; host or cells: Escherichia coli BL21(DE3)pLysS
Experimental: (§1) Time-resolved binding of coproheme to apo-HemQ was monitored using a stopped-flow apparatus equipped with a diode array detector (model SX-18MV, Applied Photophysics), in the conventional mode. […] The fastest mixing time was 1 ms. […]. Experiments were conducted in 50 mM phosphate buffer (pH 7.0). Reactions were simulated, and rates were estimated using Pro-Kineticists software (Applied Photophysics). The apparent second-order rate constants, kon, were obtained from the slope of a plot of kobs versus coproheme concentration.

[2] = molecular target: T2, apo-LmHemQ (HemQ from Listeria monocytogenes) (Listeria monocytogenes serovar 1/2a, UniProt Q8Y5F1); assay type: binding; conditions: pH 7
T2 construct: made in house; host or cells: Escherichia coli
T2 sequence (Q8Y5F1 whole entry): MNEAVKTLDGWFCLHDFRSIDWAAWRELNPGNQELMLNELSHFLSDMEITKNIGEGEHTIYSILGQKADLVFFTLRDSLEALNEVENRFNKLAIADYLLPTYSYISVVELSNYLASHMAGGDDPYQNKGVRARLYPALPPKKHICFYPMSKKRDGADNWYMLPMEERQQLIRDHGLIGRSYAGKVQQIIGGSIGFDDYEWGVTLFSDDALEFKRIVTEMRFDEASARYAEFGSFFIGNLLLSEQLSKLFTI
Experimental: as §1

[3] = system: apo-SaHemQ and apo-LmHemQ; assay type: binding, S. aureus and L. monocytogenes
Experimental: as §1

apo-myoglobin = conditions: cited from earlier work

T1 sequence (A6QEP0 whole entry): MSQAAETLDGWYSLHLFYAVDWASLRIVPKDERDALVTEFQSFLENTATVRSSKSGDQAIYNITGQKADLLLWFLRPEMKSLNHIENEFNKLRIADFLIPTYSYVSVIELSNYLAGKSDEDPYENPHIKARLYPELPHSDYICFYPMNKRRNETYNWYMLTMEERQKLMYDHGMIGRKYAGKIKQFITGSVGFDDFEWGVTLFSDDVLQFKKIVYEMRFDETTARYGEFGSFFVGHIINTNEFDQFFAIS

SMILES	increase of Tm when coproheme binds (SaHemQ) [°C]	kon, binding of coproheme to apo-HemQ, first (fast) phase [1]	kon, binding of coproheme to apo-HemQ, second (slow) phase [1]	kon, binding of coproheme to apo-HemQ, first (fast) phase [2]	kon, binding of coproheme to apo-HemQ, second (slow) phase [2]	rate of coproheme binding, fast phase [3]	KD of the prosthetic group to apo-myoglobin (apo-myoglobin)
CC1=C(CCC(=O)O)c2cc3[n-]c(cc4nc(cc5[n-]c(cc1n2)c(CCC(=O)O)c5C)C(C)=C4CCC(=O)O)c(CCC(=O)O)c3C.[Fe] [coproheme, iron coproporphyrin III]	14	~2.0 × 10^8 M^–1 s^–1	3.7 × 10^6 M^–1 s^–1	~1.5 × 10^8 M^–1 s^–1	2.2 × 10^6 M^–1 s^–1	1.5–2 × 10^8 M^–1 s^–1	–
C=CC1=C(C)c2cc3[n-]c(cc4nc(cc5[n-]c(cc1n2)c(C)c5CCC(=O)O)C(CCC(=O)O)=C4C)c(C)c3C=C.[Fe+3] [hemin]	–	–	–	–	–	–	low nanomolar range
